{"source": "patent US10881642B2", "about": "“Autophagy enhancer and use thereof” (Industry-Academic Cooperation Foundation, Yonsei University, priority 2016, dated 2021)", "key": {"calcineurin": {"system": "calcineurin", "assay": "Calcineurin phosphatase activity assay", "assay_type": "cell-based", "conditions": "lysates of Hepa1c1c7 cells"}, "TFEB": {"system": "TFEB", "assay": "TFEB nuclear translocation in TFEB-GFP HeLa cells", "assay_type": "cell-based", "conditions": "4 hrs", "procedure": "FIG. 3A is the graph showing the percentage of nuclear translocated TFEB for which TFEB-GFP HeLa cells were treated with MSL compound for 4 hrs and then nuclei of the cells were stained with DAPI. FIG. 3B is the results of the experiments in which HeLa cells were incubated in the presence of MSL compound or vehicle control for 24 hrs and then the acidic vesicular organelles formed were stained with acridine orange. FIG. 3C is the results of the experiments in which TFEB-GFP HeLa cells were treated with MSL compound or vehicle control for 4 hrs and then the cells were immunoblotted with the antibodies indicated. FIG. 3D and FIG. 3E is the result of measuring the calcineurin activity in the lysates of Hepa1c1c7 cells treated with the compounds indicated. Error bars, S.D. **, P<0.01;***, P<0.001.\nFIG. 10 is the result of the experiments using compound of formula 2 (hereinafter referred to as MSL-7) of the present disclosure as an autophagic enhancer. FIG. 10A is the result of immuneblot using the antibodies indicated using Hela cells treated with MSL or MSL-7. FIG. 10B is the result of measuring the viability of Hela cells treated with vehicle control or various concentration of MSL-7 (50-100 μM) for 48 hrs. FIG. 10C is the result of DAPI stained nuclei of TFEB-GFP HeLa cells which were treated with vehicle control or MSL-7 for 4 hrs. The graph indicates the percentage of TFEB translocated into the nuclei. Error bars, S.D. *, P<0.05; **, P<0.01; ***, P<0.001.\nScreening of autophagy enhancer. […] Luciferase assay. […] Firefly luciferase was determined after mixing 5 μl of lysate with 25 μl of Luciferase Assay Reagent II. Renilla luciferase was then determined after further addition of 20 ul of Stop&Glo Reagent. […] Cytotoxicity was determined by the measurement of LDH release in cell culture media using the LDH kit (Roche), according to the protocol from the manufacturer. […] Imaging and image quantification. […] Formation of acidic vesicular organelles was quantitated by staining the cells with acridine orange (Invitrogen, 5 ug/ml, 10 min). […]"}}, "note": "“Also recorded” adds a separate entry of the source."}
{"compound": "COc1oc(-c2ccccc2Cl)nc1S(=O)(=O)c1ccccc1", "note": "[MSL-7, 2-(2-chlorophenyl)-5-methoxy-4-(phenylsulfonyl) oxazole]", "values": [{"measurement": "calcineurin activity", "setting": "calcineurin", "value": "calcineurin activation in a dose-dependent manner"}, {"measurement": "TFEB nuclear translocation", "setting": "TFEB", "value": "induced nuclear translocation of TFEB; also recorded: in a dose-dependent manner"}]}
{"compound": "CSc1oc(-c2ccccc2)nc1S(=O)(=O)c1ccc(F)cc1", "note": "[MSL]", "values": [{"measurement": "calcineurin activity", "setting": "calcineurin", "value": "significantly increased"}, {"measurement": "TFEB nuclear translocation", "setting": "TFEB", "value": "translocated to the nuclei in the majority of MSL-treated HeLa cells"}, {"measurement": "percentage of nuclei showing TFEB positivity", "setting": "TFEB; compared to untreated cells", "value": "greatly increased"}]}
